Molecules are shown by their SMILES. Counter-ions that a name gives are not always drawn.

Drawing on patent publication US9469665B2, “Compound having lysophosphatidylserine receptor function modulation activity” (THE UNIVERSITY OF TOKYO, priority 2013, dated 2016), this text covers melting point for 17 compounds.

As a reminder, the melting point is the temperature of the solid-liquid transition.

As for `CCCCCCCC/C=C\CCCCCCCC(=O)OC[C@@H](COC)OP(=O)(O)OC[C@H](N)C(=O)O` (as salt: TFA) [Example 4, (9Z)-Octadeca-9-enoic acid (2R)-2-[((2S)-2-amino-2-carboxy-ethoxy)-hydroxy-phosphoryloxy]-3-methoxy-propyl ester], the melting point is 192.5 to 196 °C.

Compound `CCCCCCCC/C=C\CCCCCCCC(=O)OC[C@H](COC)OP(=O)(O)OC[C@H](N)C(=O)O` (as salt: TFA) [Example 5, (9Z)-Octadeca-9-enoic acid (2S)-2-[((2S)-2-amino-2-carboxy-ethoxy)-hydroxy-phosphoryloxy]-3-methoxy-propyl ester] returned a melting point of 149 to 150.5 °C.

`CCCCCCCC/C=C\CCCCCCCC(=O)OC[C@@H](COCC)OP(=O)(O)OC[C@H](N)C(=O)O` (as salt: TFA) [Example 6, (9Z)-Octadeca-9-enoic acid (2R)-2-[((2S)-2-amino-2-carboxy-ethoxy)-hydroxy-phosphoryloxy]-3-ethoxypropyl ester] came in with a melting point of 130.2 to 131 °C.

`CCCCCCCC/C=C\CCCCCCCC(=O)OC[C@@H](COCc1ccccc1)OP(=O)(O)OC[C@H](N)C(=O)O` (as salt: TFA) [Example 7, (9Z)-Octadeca-9-enoic acid (2R)-2-[((2S)-2-amino-2-carboxy-ethoxy)-hydroxy-phosphoryloxy]-3-benzyloxy-propyl ester] yielded a melting point of 118.5 to 122 °C.

Consider `CCCCCCCCCCCOc1ccccc1CCC(=O)O[C@@H]1COCC[C@H]1OP(=O)(O)OC[C@H](N)C(=O)O` (as salt: TFA) [Example 9, (2S)-2-amino-3-(hydroxyl-{(3R,4R)-3-[3-(2-undecyloxy-phenyl)-propionyloxy]-tetrahydropyran-4-yloxy}-phosphoryloxy)-propionic acid], for which the melting point was in the range of 122 to 123 °C.

In turn, `CCCCCCCCCCCOc1ccccc1CCC(=O)O[C@H]1CCOC[C@@H]1OP(=O)(O)OC[C@H](N)C(=O)O` (as salt: TFA) [Example 10, (2S)-2-amino-3-(hydroxy-{(3S,4S)-4-[3-(2-undecyloxy-phenyl)-propionyloxy]-tetrahydro-pyran-3-yloxy}-phosphoryloxy)-propionic acid] displayed a melting point of 96.5 to 98.5 °C.

For the compound `CCCCCCCCCCCOc1ccccc1CCC(=O)O[C@H]1COCC[C@@H]1OP(=O)(O)OC[C@H](N)C(=O)O` (as salt: TFA) [Example 11, (2S)-2-amino-3-(hydroxy-{(3S,4S)-3-[3-(2-undecyloxy-phenyl)-propionyloxy]-tetrahydro-pyran-4-yloxy}-phosphoryloxy)-propionic acid], the melting point is 132.8 to 134.8 °C.

`CCCCCCCCCCCOc1ccc(C(C)(C)C)cc1CCC(=O)O[C@H]1COCC[C@@H]1OP(=O)(O)OC[C@H](N)C(=O)O` (as salt: TFA) [Example 12, (2S)-2-amino-3-({(3S,4S)-3-[3-(5-tert-butyl-2-undecyloxy-phenyl)-propionyloxy]-tetrahydro-pyran-4-yloxy}-hydroxy-phosphoryloxy)-propionic acid] came in with a melting point of 144 to 144.5 °C.

`CCCCCCCC/C=C\CCCCCCCC(=O)OC[C@H]1OCCC[C@H]1OP(=O)(O)OC[C@H](N)C(=O)O` (as salt: TFA) [Example 15, (9Z)-Octadeca-9-enoic acid (2R,3R)-3-[((2S)-2-amino-2-carboxy-ethoxy)-hydroxy-phosphoryloxy]-tetrahydropyran-2-ylmethyl ester]: the melting point was in the range of 70 to 80 °C.

Take `N[C@@H](COP(=O)(O)OC[C@H]1OCCC[C@H]1OC(=O)CCc1ccccc1OCc1cccc(Oc2ccccc2)c1)C(=O)O` (as salt: TFA) [Example 18]: the melting point was 65 to 75 °C.

In turn, `CCCCCCCC/C=C\CCCCCCCC(=O)OC[C@H]1OCCC[C@@H]1OP(=O)(O)OC[C@H](N)C(=O)O` (as salt: TFA) [Example 20, (9Z)-Octadeca-9-enoic acid (2R,3S)-3-[((2S)-2-amino-2-carboxy-ethoxy)-hydroxy-phosphoryloxy]-tetrahydro-pyran-2-ylmethyl ester] registered a melting point of 70 to 80 °C.

As for `CCCCCCCCCCCOc1ccccc1CCC(=O)OC[C@H]1OCCC[C@@H]1OP(=O)(O)OC[C@H](N)C(=O)O` (as salt: TFA) [Example 21, (2S)-2-amino-3-(hydroxyl-{(2R,3S)-2-[3-(2-undecyloxy-phenyl)-propionyloxymethyl]-tetrahydro-pyran-3-yloxy}-phosphoryloxy)-propionic acid], the melting point was in the range of 70 to 86 °C.

For `C[C@H](OP(=O)(O)OC[C@H]1OCCC[C@@H]1OC(=O)CCc1ccccc1OCc1cccc(Oc2ccccc2)c1)[C@H](N)C(=O)O` (as salt: TFA) [Example 27, (2S,3S)-2-amino-3-[hydroxyl-((2R,3S)-3-{3-[2-(3-phenoxy-benzyloxy)-phenyl]-propionyloxy}-tetrahydro-pyran-2-ylmethoxy)-phosphoryloxy]-butyric acid], the melting point lay within 75 to 86 °C.

For the compound `C[C@H](OP(=O)(O)OC[C@H]1OCCC[C@H]1OC(=O)CCc1ccccc1OCc1cccc(Oc2ccccc2)c1)[C@H](N)C(=O)O` (as salt: TFA) [Example 28, (2S,3S)-2-amino-3-[hydroxyl-((2R,3R)-3-{3-[2-(3-phenoxy-benzyloxy)-phenyl]-propionyloxy}-tetrahydro-pyran-2-ylmethoxy)-phosphoryloxy]-butyric acid], the melting point fell in the range of 62 to 72 °C.

`C[C@H](OP(=O)(O)O[C@H]1CCCO[C@@H]1COC(=O)CCc1ccccc1OCc1cccc(Oc2ccccc2)c1)[C@H](N)C(=O)O` (as salt: TFA) [Example 29, (2S,3S)-2-amino-3-[hydroxy-((2R,3S)-2-{3-[2-(3-phenoxybenzyloxy)-phenyl]-propionyloxymethyl}-tetrahydro-pyran-3-yloxy)-phosphoryloxy]-butyric acid]: the melting point was in the range of 42 to 54 °C.

For `C[C@H](OP(=O)(O)O[C@@H]1CCCO[C@@H]1COC(=O)CCc1ccccc1OCc1cccc(Oc2ccccc2)c1)[C@H](N)C(=O)O` (as salt: TFA) [Example 30, (2S,3S)-2-amino-3-[hydroxy-((2R,3R)-2-{3-[2-(3-phenoxy-benzyloxy)-phenyl]-propionyloxymethyl}-tetrahydro-pyran-3-yloxy)-phosphoryloxy]-butyric acid], the melting point was in the range of 52 to 60 °C.

In turn, `COC[C@H](COC(=O)CCc1ccccc1OCc1cccc(Oc2ccccc2)c1)OP(=O)(O)OC[C@H](N)C(=O)O` (as salt: TFA) [Example 31, (2S)-2-amino-3-[hydroxy-((1R)-1-methoxymethyl-2-{3-[2-(3-phenoxy-benzyloxy)-phenyl]-propionyloxy}-ethoxy)-phosphoryloxy]-propionic acid] came in with a melting point of 51.5 to 53.5 °C.
